# Source: patent US10562891B2, “Quinazolinones as PARP14 inhibitors” (Ribon Therapeutics Inc., priority 2017, dated 2020)
# Counter-ions that a name gives are not always drawn.
# Target: catalytic domain of human PARP14 (Homo sapiens (Human), UniProt Q460N5)
# Experiment: Enzymatic assay for inhibition of PARP14 (DELFIA, auto-modification with biotin-NAD)
# Assay type: biochemical
# Details: auto-modification of PARP14 by biotin-NAD, 50 nM PARP14, 3 μM biotin-NAD
# How it was run: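 DELFIA auto-modification read-out: europium-streptavidin bound to biotin-NAD incorporated onto nickel-captured His-TEV PARP14 catalytic domain. Compound preincubated 30 min, then 50 nM enzyme with 3 μM biotin-NAD reacted 3 h, all at 25 °C, pH 8, then NAD quench. Percent inhibition normalized to rucaparib/DMSO wells, fitted (4- or 3-parameter) for IC50.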
# catalytic domain of human PARP14, sequence (Q460N5 1611-1801): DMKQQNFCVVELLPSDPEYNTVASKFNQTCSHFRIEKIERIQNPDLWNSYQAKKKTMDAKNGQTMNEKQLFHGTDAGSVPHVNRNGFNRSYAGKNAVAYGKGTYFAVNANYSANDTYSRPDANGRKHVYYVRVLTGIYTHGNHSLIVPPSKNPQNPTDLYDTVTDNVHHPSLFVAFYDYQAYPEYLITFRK
row,Compound,IC50
1,"CC(=O)N1CCC(SCc2nc3c(C)cccc3c(=O)[nH]2)CC1 [Example 17, 2-(((1-Acetylpiperidin-4-yl)thio)methyl)-8-methylquinazolin-4(3H)-one]",1000 to 10000 nM
2,"O=c1[nH]c(CSC2CCOCC2)nc2cc(Nc3ccon3)ccc12 [Example 94, 7-(Isoxazol-3-ylamino)-2-(((tetrahydro-2H-pyran-4-yl)thio)methyl)quinazolin-4(3H)-one]",< 1000 nM
3,CC(=O)N[C@H]1C[C@@H](SCc2nc3cc(OCC4CCOCC4)cc(F)c3c(=O)[nH]2)C1 [Example 387],< 1000 nM
4,"Cc1cccc2c(=O)[nH]c(CSC3CCC(CN)C3)nc12 (centres unmarked) [Example 191, 2-(((3-(aminomethyl)cyclopentyl)thio)methyl)-8-methylquinazolin-4(3H)-one]",1000 to 10000 nM
5,"Cc1cccc2c(=O)[nH]c(CSC3CCN(Cc4cnn(Cc5ccccc5)c4)CC3)nc12 [Example 154, 2-(((1-((1-Benzyl-1H-pyrazol-4-yl)methyl)piperidin-4-yl)thio)methyl)-8-methylquinazolin-4(3H)-one trifluoroacetate]",< 1000 nM
6,"CS(=O)(=O)N1CCC[C@@H](Nc2ccc3c(=O)[nH]c(CSC4CCOCC4)nc3c2)C1 [Example 193, (R)-7-((1-(methylsulfonyl)piperidin-3-yl)amino)-2-(((tetrahydro-2H-pyran-4-yl)thio)methyl)quinazolin-4(3H)-one]",< 1000 nM
7,"O=c1[nH]c(CSC2CCNCC2)nc2cc(OCC3CCC3)cc(F)c12 [Example 280, 7-(Cyclobutylmethoxy)-5-fluoro-2-((piperidin-4-ylthio)methyl)quinazolin-4(3H)-one 2,2,2-trifluoroacetate]",< 1000 nM
8,"Cc1cccc2c(=O)[nH]c(CSC3CCCOCC3)nc12 (centres unmarked) [Example 198, 8-methyl-2-((oxepan-4-ylthio)methyl)quinazolin-4(3H)-one]",1000 to 10000 nM
9,"O=c1[nH]c(CSC2CCCNCC2)nc2cc(NC3CCCC3)ccc12 (centres unmarked) [Example 190, 2-((azepan-4-ylthio)methyl)-7-(cyclopentylamino)quinazolin-4(3H)-one]",< 1000 nM
10,"Cc1ccc(C(F)(F)F)c2c(=O)[nH]c(CS[C@H]3CC[C@H](O)CC3)nc12 [Example 60, 2-(((trans-4-Hydroxycyclohexyl)thio)methyl)-8-methyl-5-(trifluoromethyl) quinazolin-4(3H)-one]",< 1000 nM
11,"O=c1[nH]c(CSC2CCCCC2)nc2cc(OCC3CCC3)cc(F)c12 [Example 309, 7-(Cyclobutylmethoxy)-2-((cyclohexylthio)methyl)-5-fluoroquinazolin-4(3H)-one]",< 1000 nM
12,"Cc1cccc2c(=O)[nH]c(CS[C@H]3C[C@H](N)C3)nc12 [Example 52, 2-(((trans-3-Aminocyclobutyl)thio)methyl)-8-methylquinazolin-4(3H)-one Hydrochloride]",1000 to 10000 nM
13,C[C@]1(O)CC[C@@H](SCc2nc3cc(OCC4CCOCC4)cc(F)c3c(=O)[nH]2)CC1 [Example 411],< 1000 nM
14,"O=c1[nH]c(CSC2CCOCC2)nc2cc(NCCC3CCOCC3)ccc12 [Example 256, 7-((2-(Tetrahydro-2H-pyran-4-yl)ethyl)amino)-2-(((tetrahydro-2H-pyran-4-yl)thio)methyl)quinazolin-4(3H)-one]",< 1000 nM
15,"O=c1[nH]c(CSC2CCN(CCC(F)(F)F)CC2)nc2cc(NC3CCCC3)ccc12 [Example 259, 7-(Cyclopentylamino)-2-(((1-(3,3,3-trifluoropropyl)piperidin-4-yl)thio)methyl)quinazolin-4(3H)-one]",< 1000 nM
16,"Cc1cccc2c(=O)[nH]c(CSC3CCN(Cc4cc[nH]n4)CC3)nc12 [Example 142, 2-(((1-((1H-Pyrazol-3-yl)methyl)piperidin-4-yl)thio)methyl)-8-methylquinazolin-4(3H)-one trifluoroacetate]",< 1000 nM
17,"O=c1[nH]c(CSC2CCOCC2)nc2cc(OCC3CCN(CC(F)F)CC3)cc(F)c12 [Example 300, 7-((1-(2,2-Difluoroethyl)piperidin-4-yl)methoxy)-5-fluoro-2-(((tetrahydro-2H-pyran-4-yl)thio)methyl)quinazolin-4(3H)-one]",< 1000 nM
18,"CNC(=O)CN1CCC(SCc2nc3cc(NC4CCCC4)cc(F)c3c(=O)[nH]2)CC1 [Example 283, 2-(4-(((7-(Cyclopentylamino)-5-fluoro-4-oxo-3,4-dihydroquinazolin-2-yl)methyl)thio)piperidin-1-yl)-N-methylacetamide hydrochloride]",< 1000 nM
19,"Cc1cccc2c(=O)[nH]c(CS[C@@H]3CCC[C@H](CO)O3)nc12 (relative stereo) [Example 260, 2-(((Cis-6-(hydroxymethyl)tetrahydro-2H-pyran-2-yl)thio)methyl)-8-methylquinazolin-4(3H)-one]",> 10000 nM
20,"O=c1[nH]c(CSC2CCOCC2)nc2cc(F)ccc12 [Example 30, 7-Fluoro-2-(((tetrahydro-2H-pyran-4-yl)thio)methyl)quinazolin-4(3H)-one]",1000 to 10000 nM
21,CN1CC[C@@H](COc2cc(F)c3c(=O)[nH]c(CSC4CCOCC4)nc3c2)[C@@H](F)C1 (relative stereo) [Example 388],< 1000 nM

row,Compound,IC50
1,CC(=O)N[C@H]1CC[C@H](SCc2nc3cc(OCC4CCOCC4)cc(F)c3c(=O)[nH]2)CC1 [Example 426],< 1000 nM
2,"Cc1cccc2c(=O)[nH]c(CS[C@H]3CCC[C@H](N)CC3)nc12 (relative stereo) [Example 54, 2-(((trans-4-Aminocycloheptyl)thio)methyl)-8-methylquinazolin-4(3H)-one Trifluoroacetate]",1000 to 10000 nM
3,"O=c1[nH]c(CSC2CCN(Cc3ccccn3)CC2)nc2cc(NC3CCCC3)cc(F)c12 [Example 281, 7-(Cyclopentylamino)-5-fluoro-2-(((1-(pyridin-2-ylmethyl)piperidin-4-yl)thio)methyl)quinazolin-4(3H)-one]",< 1000 nM
4,"O=c1[nH]c(CS[C@H]2CC[C@@H](CO)CC2)nc2cc(Nc3ccccc3)ccc12 [Example 105, 2-(((cis-4-(Hydroxymethyl)cyclohexyl)thio)methyl)-7-(phenylamino) quinazolin-4(3H)-one]",< 1000 nM
5,"O=c1[nH]c(CSC2CCOCC2)nc2cc(NC3CCCC3)c(F)c(F)c12 [Example 294, 7-(Cyclopentylamino)-5,6-difluoro-2-(((tetrahydro-2H-pyran-4-yl)thio)methyl)quinazolin-4(3H)-one]",< 1000 nM
6,O=c1[nH]c(CSC2CCOCC2)nc2cc(NCC3CC3)c(F)c(F)c12 [Example 337],< 1000 nM
7,"Cc1cccc2c(=O)[nH]c(CS(=O)(=O)C3CCOCC3)nc12 [Example 19, 8-Methyl-2-(((tetrahydro-2H-pyran-4-yl)sulfonyl)methyl)quinazolin-4(3H)-one]",> 10000 nM
8,"CNC[C@H]1CC[C@H](SCc2nc3c(C)cccc3c(=O)[nH]2)CC1 [Example 73, 8-Methyl-2-(((trans-4-((methylamino)methyl)cyclohexyl)thio)methyl) quinazolin-4(3H)-one]",< 1000 nM
9,"Cc1cccc2c(=O)[nH]c(CS[C@H]3CC[C@H](C(N)=O)CC3)nc12 [Example 205, trans-4-(((8-Methyl-4-oxo-3,4-dihydroquinazolin-2-yl)methyl)thio)cyclohexane-1-carboxamide]",< 1000 nM
10,"CO[C@H]1CC[C@@H](SCc2nc3c(C)cccc3c(=O)[nH]2)CC1 [Example 27, 2-((((cis)-4-Methoxycyclohexyl)thio)methyl)-8-methylquinazolin-4(3H)-one]",1000 to 10000 nM
11,CO[C@H]1C[C@H](Nc2cc3nc(CSC4CCOCC4)[nH]c(=O)c3c(F)c2F)C1 [Example 362],< 1000 nM
12,"O=c1[nH]c(CSC2CCOCC2)nc2ncccc12 [Example 43, 2-(((Tetrahydro-2H-pyran-4-yl)thio)methyl)pyrido[2,3-d]pyrimidin-4(3H)-one]",> 10000 nM
13,"CN(C)c1ccc2c(=O)[nH]c(CSC3CCOCC3)nc2c1 [Example 109, 7-(Dimethylamino)-2-(((tetrahydro-2H-pyran-4-yl)thio)methyl)quinazolin-4(3H)-one]",1000 to 10000 nM
14,"O=c1[nH]c(CSC2CCNCC2)nc2cc(NCC3CC3)cc(F)c12 [Example 265, 7-((Cyclopropylmethyl)amino)-5-fluoro-2-((piperidin-4-ylthio)methyl)quinazolin-4(3H)-one]",< 1000 nM
15,"O=c1[nH]c(CSC2CCCCC2)nc2cc(NC3CCCC3)c(F)c(F)c12 [Example 310, 2-((Cyclohexylthio)methyl)-7-(cyclopentylamino)-5,6-difluoroquinazolin-4(3H)-one]",< 1000 nM
16,"NC[C@H]1CC[C@@H](SCc2nc3cc(NC4CCCC4)cc(F)c3c(=O)[nH]2)CO1 (relative stereo) [Example 242, 2-((((cis)-6-(Aminomethyl)tetrahydro-2H-pyran-3-yl)thio)methyl)-7-(cyclopentylamino)-5-fluoroquinazolin-4(3H)-one bis Hydrochloride]",1000 to 10000 nM
17,"O=c1[nH]c(CSC2CCCCC2)nc2cc(NC3CCCC3)cc(F)c12 [Example 215, 2-((Cyclohexylthio)methyl)-7-(cyclopentylamino)-5-fluoroquinazolin-4(3H)-one]",< 1000 nM
18,"C[C@]1(O)CC[C@H](SCc2nc3cc(OCC4CCOCC4)cc(F)c3c(=O)[nH]2)CC1 [Example 332, 5-Fluoro-2-((((cis)-4-hydroxy-4-methylcyclohexyl)thio)methyl)-7-((tetrahydro-2H-pyran-4-yl)methoxy)quinazolin-4(3H)-one]",< 1000 nM
19,"CN1CCC(SCc2nc3cc(NC4CCCC4)cc(F)c3c(=O)[nH]2)CC1 [Example 246, 7-(Cyclopentylamino)-5-fluoro-2-(((1-methylpiperidin-4-yl)thio)methyl)quinazolin-4(3H)-one]",< 1000 nM
20,"Cc1cccc2c(=O)[nH]c(CS[C@H]3CCC[C@@H](CO)C3)nc12 (relative stereo) [Example 71, 2-(((cis-3-(Hydroxymethyl)cyclohexyl)thio)methyl)-8-methylquinazolin-4(3H)-one]",1000 to 10000 nM
